For one test, the system named is RBL-2H3 cells. Put plainly: RBL-2H3 cell degranulation inhibition test. In kind it is cell-based, rat. Conditions: untreated control = 100. As to the method: Whether or not an anti-I-type allergy agent has a degranulation inhibitory action can be confirmed through the following method. For example, cells, such as rat basophilic leukemia cells (RBL-2H3 cells), which extracellularly release […] containing histamine through cross-linking of IgE bound on a cell surface due to an antigen are used. The extent to which the degranulation of a specimen to which an anti-I-type allergy agent is added is inhibited when these cells are stimulated by the antigen is calculated compared to a specimen to which no anti-I-type allergy agent is added. RBL-2H3 cells, which were rat basophilic leukemia cells, (National Institutes of Biomedical Innovation, Health and Nutrition) were seeded in a 96-well plate and were then cultured overnight. […] Then, the cells were washed with the buffer solutions. Furthermore, the prepared 1,000, 500, and 250 μg/mL test solutions were added thereto so that the final concentrations became 500 μg/mL (Example 1), 250 μg/mL (Example 2), and 125 μg/mL (Example 3), respectively. Thereafter, the mixtures were allowed to react at 37° C. for 10 minutes. Then, DNP-labeled human serum albumin was added thereto, and the mixtures were further allowed to react at 37° C. for 3 hours. […] For each sample of Examples 1 to 3, Comparative Example 1, a positive control, an antigen-unstimulated control, and sample blanks, the absorbance of p-nitrophenol generated by reaction between a substrate and β-hexosaminidase present in granules was measured (at a measurement wavelength of 405 nm and a control wavelength of 650 nm) using a microplate reader (SpectraMax M2e, Molecular Devices, LLC.) The emission rate was obtained using the following equation from the absorbance of each sample with respect to the absorbance of Comparative Example 1, and each degranulation rate was calculated from the emission rate. In the equation, “absorbance on cell supernatant” and “absorbance on cell solution side” are values obtained by subtracting the sample blanks. Emission rate (%)=absorbance on cell supernatant side/(absorbance on cell supernatant side+absorbance on cell solution side) Degranulation rate (%)={average value of (emission rate of test solution−emission rate of antigen-unstimulated control)/(emission rate of untreated control−emission rate of antigen-unstimulated control)}×100

The test system of test [1] is short-term memory impairment caused by accumulation of amyloid β proteins. Put plainly: Y-shaped maze test in mice injected with amyloid β. The class given is in vivo. Conditions: 100 mg/kg oral once a day. As to the method: p-Coumaric acid (trans-p-coumaric acid, Tokyo Chemical Industry Co., Ltd.) was stored at room temperature (control temperature: 18.0° C. to 28.0° C.) until it was used in a test. Injection water (Otsuka distilled water, Otsuka Pharmaceutical Factory, Inc.) was prepared as a medium in which p-coumaric acid was to be dissolved. The required amount of p-coumaric acid was weighed out and dissolved in the injection water. Then, the dissolved p-coumaric acid was diluted to a predetermined concentration to obtain a test solution.
Amyloid β (Amyloid-β Protein (25-35, Polypeptide Laboratories) to be used in an amyloid β solution was stored in a freezer (control temperature: −30° C. to −20° C.) until it was to be used in a test. Amyloid β was dissolved in injection water to 2 mM to prepare an amyloid β solution.
Male Slc:ddY mice (SPF, Japan SLC, Inc.) were used as test animals 5-week-old mice were obtained as the mice. Mice are animal species generally used in behavioral pharmacology tests, and maintenance of their strains is clear. The body weight range of the mice 1 day after the acquisition was 23.8 to 30.0 g.
Grouping was performed through a random sampling method on the start day of administration of a test solution so that the average body weight of each group was approximately uniform. As a group configuration, there were three groups: a pseudo-operation group, a medium control group, and a p-coumaric acid administration group. In the p-coumaric acid administration group, the amount of solution administered was calculated as 10 mL/kg based on the body weight on the administration day so that the amount of p-coumaric acid administered was 100 mg/kg per mouse. A 0.5% (w/v) methyl cellulose solution was administered to the pseudo-operation group and the medium control group at 10 mL/kg.
The start day of administration of a test solution was regarded as day 1 of administration, the test solution was administered once a day, and an amyloid β solution was injected into the mice on day 8 of the administration. Thereafter, a Y-shaped maze test was carried out on day 14 of the administration. Each procedure will be described below.
The administration route was oral administration. Regarding the administration method, a test solution was orally administered according to a usual method used in test facilities using a polypropylene disposable injection cylinder (TERUMO CORPORATION) equipped with a disposable oral sonde for mice (Fuchigami Kikai). At the time of the administration operation, the test solution was mixed by inversion every time it was administered to a mouse, and was then sucked into the injection cylinder. On the day of injection of an amyloid β solution, the test solution was administered after the injection of the amyloid β solution. […]

[2] abbreviates: day 14, 8 minutes in maze, mean ± standard error.

Molecules are shown by their SMILES.

On to `COC[C@H]1OC(=O)c2coc3c2[C@@]1(C)C1=C(C3=O)[C@@H]2CCC(=O)[C@@]2(C)C[C@H]1OC(C)=O` [Wortmannin, reference compound], for which the degranulation rate with RBL-2H3 cells (Wortmannin final concentration 25 nmol/L) was found to be 39±6.4%.

For `O=C(O)/C=C/c1ccc(O)cc1` [p-Coumaric acid], the “Spontaneous alternation behavior number” value in test [1] (setting [2]) stood at 21.3 ± 1.5. Further, the “Spontaneous behavior alternation rate (%)” value in test [1] (setting [2]) is 66.0 ± 1.4%. This compound also had a Total entry number in test [1] (setting [2]) of 34.2 ± 2.1. The “spontaneous alternation behavior rate compared with medium control group” value in test [1] (day 14, significant difference p<0.01) is recorded as “higher than that of the medium control group”. For the same compound, the degranulation rate with RBL-2H3 cells (p-coumaric acid final concentration 125 μg/mL) amounted to 78±8.1%; with RBL-2H3 cells (p-coumaric acid final concentration 250 μg/mL), 46±8.0%; with RBL-2H3 cells (p-coumaric acid final concentration 500 μg/mL, anti-DNP-IgE sensitised, DNP-labeled human serum albumin stimulated), 12±3.0%.
